We go through twelve compounds from US20240262795A1, “PYRAZINE COMPOUNDS AS INHIBITORS OF FLT3” (Biomea Fusion, Inc., priority 2021, published 2024).

Each structure is given as a SMILES string.

The target of one experiment is T1, FLT3-ITD (Homo sapiens, UniProt P36888, DUP595-601).
T1 construct: purchased Signalchem F-12-12CG-10
T1 sequence (P36888 with tags, fused parts or gaps DUP595-601 limits assumed): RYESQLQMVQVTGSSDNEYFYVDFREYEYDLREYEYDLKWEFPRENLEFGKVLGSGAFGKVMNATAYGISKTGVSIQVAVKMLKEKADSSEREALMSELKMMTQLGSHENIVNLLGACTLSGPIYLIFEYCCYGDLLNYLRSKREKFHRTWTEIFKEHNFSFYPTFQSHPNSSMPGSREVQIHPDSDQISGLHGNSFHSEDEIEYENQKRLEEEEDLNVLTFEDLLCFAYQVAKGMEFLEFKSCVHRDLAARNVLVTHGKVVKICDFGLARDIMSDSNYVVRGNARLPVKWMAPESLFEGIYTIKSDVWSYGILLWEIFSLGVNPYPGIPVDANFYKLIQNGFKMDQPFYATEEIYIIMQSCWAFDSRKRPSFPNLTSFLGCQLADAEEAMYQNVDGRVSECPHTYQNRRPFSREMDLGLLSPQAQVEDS
Briefly: FLT3-ITD Lance Ultra TR-FRET kinase assay. The class given is biochemical. An excerpt: (§1) High throughput 384-well Lance Ultra TR-FRET based kinase assays were established for the WT FLT3 and FLT3-ITD enzymes and employed a ULight-labeled peptide […] and FLT3 proteins labelled with Eu-conjugated antibody […] (WuXi Aptec). The principle of TR-FRET is based on transfer of energy between a donor and acceptor fluorophore that results when the fluorophores are within close proximity (˜100 Å) of each other. Recombinant WT FLT3 (#PR4666C, M.W. 48.6 kDa) was purchased from Invitrogen and FLT3-ITD (FLT3-ITD-W51, #F-12-12CG-10, M.W. 76 kDa) was purchased from Signalchem. Optimal assay conditions for the WT FLT3 enzyme assay were as follows: 0.5 nM FLT3 protein, 50 nM ULight-JAK-1 (Tyr1023) substrate peptide (PerkinElmer #TRF0121), 100 μM ATP, 60 min reaction time. Optimal assay conditions for the FLT3-ITD enzyme assay were as follows: 0.0625 nM FLT3-ITD protein, 50 nM ULight-JAK-1 (Tyr1023) substrate peptide, 50 μM ATP, 90 min reaction time. Briefly, 11 dose 3× serial dilutions were prepared for the test compounds and the reference compound and 100 nanoliters transferred to appropriate wells of 384-well assay plates. Five microliters of 2× enzyme/peptide were added into assay wells, assay plates centrifuged at 1000 rpm for about 30 seconds, sealed with sealing film and incubated for 30 min at 23° C. Assay buffer comprised 50 mM HEPES (pH 7.5), 1 mM EDTA, 0.01% Brij-35, 10 mM MgCl2 and 2 mM DTT. Next 5 μl of a 2× ATP mixture were added into the assay wells and the plates centrifuged at 1000 rpm about 30 seconds, sealed with sealing film and incubated for 23° C. for appropriate duration. Following assay incubation (30 min for WT FLT3 and 60 min for FLT3-ITD) 10 μl 2× Detection Mixture (Eu-W1024 Anti-phosphotyrosine (PT66) 2 nM and EDTA 10 mM) was added to assay wells, assay plates centrifuge at 1000 rpm about 1 minutes, sealed with sealing film and incubated at 23° C. for 60 minutes. Assay plates were read on a Perkin Elmer Envision reader at two wavelengths (665/615) and the ratio of […] calculated.
(§2) Data was expressed as % of inhibition relative to the vehicle control and calculated as follows:
(§3) Results were analyzed by XLFIT5 as % inhibition vs. log [compound concentration] and IC50 values were calculated by non-linear regression using four parameter-logistic equation. Fit=(A+((B−A)/(1+((C/x)^D)))). Res=(y−fit).
A general note: Time-resolved FRET reads energy transfer from a long-lived donor to a nearby acceptor.

For another experiment, the target named is T2, WT FLT3 (Homo sapiens, UniProt P36888).
T2 construct: purchased Invitrogen PR4666C
T2 sequence (P36888 564-993 limits assumed): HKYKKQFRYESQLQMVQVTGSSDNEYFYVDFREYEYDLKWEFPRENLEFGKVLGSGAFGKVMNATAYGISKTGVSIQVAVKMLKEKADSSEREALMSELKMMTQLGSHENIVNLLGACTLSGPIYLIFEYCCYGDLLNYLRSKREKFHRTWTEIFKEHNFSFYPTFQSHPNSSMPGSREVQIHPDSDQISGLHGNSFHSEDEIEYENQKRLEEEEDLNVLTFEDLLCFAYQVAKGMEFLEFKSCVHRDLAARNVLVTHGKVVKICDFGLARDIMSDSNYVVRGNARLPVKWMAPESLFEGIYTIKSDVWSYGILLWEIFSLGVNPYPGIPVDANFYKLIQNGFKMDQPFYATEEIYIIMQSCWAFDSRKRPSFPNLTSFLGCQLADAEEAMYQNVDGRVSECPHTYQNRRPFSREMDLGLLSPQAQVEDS
The experiment in a line: WT FLT3 Lance Ultra TR-FRET kinase assay. The format is biochemical.
From the text: as §1, §2, §3

In the next experiment the test system is MV-4-11. Briefly: Proliferation inhibition, CellTiter-Glo, MV-4-11. The class given is cell-based, human. The settings on record: Homo sapiens, MV4-11, 96 h; MV-4:11 cells, IC50 (4 days), CellTiter-Glo; read-out: MV-4:11 IC50. Summed up:
(§4)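 About 10,000 cells per well in RPMI-1640 with 10% FBS. Compounds added 2 h after seeding at eight concentrations in duplicate (0.2% DMSO as 100% proliferation), then incubated ~96 h at 37° C, 5% CO2. ATP measured by CellTiter-Glo luminescence; IC50 from four-parameter logistic fit.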
(In ATP-based viability assays light output follows the ATP content of the culture.)

The test system of another experiment is MOLM-13. The experiment in a line: Proliferation inhibition, CellTiter-Glo, MOLM-13. The format is cell-based, human. The settings on record: Homo sapiens, 96 h; MOLM-13 cells, IC50 (4 days), CellTiter-Glo; read-out: MOLM-13 IC50. Summed up:
as §4

The next experiment has as its system K-562. The experiment in a line: Proliferation inhibition, CellTiter-Glo, K-562. The format is cell-based, human. The settings on record: Homo sapiens, K562, 96 h; K-562 cells, IC50 (4 days), CellTiter-Glo; read-out: K-562 IC50. Summed up: as §4

In the case of `Cc1nc(C(N)=O)c(Nc2cccc(CCNC(=O)CN(C)C(=O)/C=C/CN(C)C)c2)nc1C1CC1` [Compound 241, (E)-5-cyclopropyl-3-((3-(2-(2-(4-(dimethylamino)-N-methylbut-2-enamido)acetamido)ethyl)phenyl)amino)-6-methylpyrazine-2-carboxamide], the IC50 was 0.201 to 0.5 nM against FLT3-ITD; greater than 1 nM against WT FLT3; 1 to 10 nM with MV-4-11; 1 to 10 nM in the experiment on MOLM-13; greater than 500 nM with K-562.

As for `CCN(C)c1nc(Nc2cccc(CCNC(=O)[C@H](C)N(C)C(=O)/C=C/CN(C)C)c2)c(C(N)=O)nc1C` [Compound 253, (S,E)-3-((3-(2-(2-(4-(dimethylamino)-N-methylbut-2-enamido)propanamido)ethyl)phenyl)amino)-5-(ethyl(methyl)amino)-6-methylpyrazine-2-carboxamide], the IC50 on FLT3-ITD was 0.201 to 0.5 nM; at WT FLT3 it was 0.501 to 1 nM; with MV-4-11 it was less than 1 nM; in the experiment with MOLM-13, 1 to 10 nM; in the experiment with K-562, greater than 500 nM.

As for `Cc1nc(C(N)=O)c(Nc2cc(F)cc(CCNC(=O)[C@H](C)N(C)C(=O)/C=C/CN(C)C)c2)nc1C1CC1` [Compound 254, (S,E)-5-cyclopropyl-3-((3-(2-(2-(4-(dimethylamino)-N-methylbut-2-enamido)propanamido)ethyl)-5-fluorophenyl)amino)-6-methylpyrazine-2-carboxamide], the concentration for half-maximal inhibition (IC50) is 0.501 to 1 nM on FLT3-ITD; 0.501 to 1 nM on WT FLT3; less than 1 nM in the experiment on MV-4-11; 1 to 10 nM with MOLM-13; greater than 500 nM in the experiment on K-562.

Take `CCc1nc(C(N)=O)c(Nc2cccc(CCNC(=O)[C@@H](C)N(C)C(=O)/C=C/CN(C)C)c2)nc1N(C)C(C)C` [Compound 302, (R,E)-3-((3-(2-(2-(4-(dimethylamino)-N-methylbut-2-enamido)propanamido)ethyl)phenyl)amino)-6-ethyl-5-(isopropyl (methyl)amino) pyrazine-2-carboxamide]: the IC50 at FLT3-ITD was greater than 1 nM; against WT FLT3 it was greater than 1 nM; in the experiment with MV-4-11, less than 1 nM; in the experiment with MOLM-13 it was 1 to 10 nM; in the experiment with K-562 it was greater than 500 nM.

As to `CCc1nc(C(N)=O)c(Nc2cccc(CCNC(=O)[C@H](C)N(C)C(=O)/C=C/CNC)c2)nc1NC(C)C` [Compound 303, (S, E)-6-ethyl-5-(isopropylamino)-3-((3-(2-(2-(N-methyl-4-(methylamino)but-2-enamido)propanamido)ethyl)phenyl)amino) pyrazine-2-carboxamide], the IC50 against FLT3-ITD is 0.201 to 0.5 nM; against WT FLT3, 0.201 to 0.5 nM; with MV-4-11, less than 1 nM; with MOLM-13, less than 1 nM; in the experiment with K-562, greater than 500 nM.

Take `Cc1nc(C(N)=O)c(Nc2cccc(CCNC(=O)[C@H](C)N(C)C(=O)/C=C/CN(C)C)c2)nc1C(C)C` [Compound 305, (S,E)-3-((3-(2-(2-(4-(dimethylamino)-N-methylbut-2-enamido)propanamido)ethyl)phenyl)amino)-5-isopropyl-6-methylpyrazine-2-carboxamide]: the IC50 on FLT3-ITD is greater than 1 nM; against WT FLT3, greater than 1 nM; with MV-4-11 it was 1 to 10 nM; in the experiment with MOLM-13, 1 to 10 nM; with K-562, greater than 500 nM.

Consider `C=CC(=O)N(C)CC(=O)NCCc1cccc(Nc2nc(N(C)C(C)C)c(CC)nc2C(N)=O)c1` [Compound 308, 6-ethyl-5-(isopropyl(methyl)amino)-3-((3-(2-(2-(N-methylacrylamido)acetamido)ethyl)phenyl)amino)pyrazine-2-carboxamide], for which the IC50 was 0.101 to 0.2 nM against FLT3-ITD; 0.201 to 0.5 nM on WT FLT3; 1 to 10 nM with MV-4-11; 1 to 10 nM in the experiment on MOLM-13; greater than 500 nM with K-562.

As to `C=CC(=O)N(C)[C@@H](C)C(=O)NCCc1cccc(Nc2nc(N(C)C(C)C)c(CC)nc2C(N)=O)c1` [Compound 315, (S)-6-ethyl-5-(isopropyl(methyl)amino)-3-((3-(2-(2-(N-methylacrylamido)propanamido)ethyl)phenyl)amino)pyrazine-2-carboxamide], the IC50 was 0.501 to 1 nM at FLT3-ITD; greater than 1 nM against WT FLT3; 1 to 10 nM in the experiment with MV-4-11; 1 to 10 nM in the experiment with MOLM-13; greater than 500 nM in the experiment with K-562.

With `CCc1nc(C(N)=O)c(Nc2cccc([C@@H](C)CNC(=O)CN(C)C(=O)/C=C/CN(C)C)c2)nc1C` [Compound 321, (R,E)-3-((3-(1-(2-(4-(dimethylamino)-N-methylbut-2-enamido)acetamido)propan-2-yl)phenyl)amino)-6-ethyl-5-methylpyrazine-2-carboxamide], the IC50 against FLT3-ITD was greater than 1 nM; against WT FLT3 it was 0.501 to 1 nM; in the experiment on MV-4-11, 1 to 10 nM; in the experiment on MOLM-13, 1 to 10 nM; in the experiment on K-562 it was greater than 500 nM.

As to `C#Cc1nc(C(N)=O)c(Nc2cccc(CCNC(=O)CN(C)C(=O)/C=C/CN(C)C)c2)nc1N(C)C(C)C` [Compound 327, (E)-3-((3-(2-(2-(4-(dimethylamino)-N-methylbut-2-enamido)acetamido)ethyl)phenyl)amino)-6-ethynyl-5-(isopropyl (methyl)amino) pyrazine-2-carboxamide], the IC50 at FLT3-ITD was 0.201 to 0.5 nM; on WT FLT3 it was 0.501 to 1 nM; in the experiment with MV-4-11 it was 10 to 100 nM; in the experiment on MOLM-13, 1 to 10 nM; with K-562 it was greater than 500 nM.

Consider `C=Cc1nc(C(N)=O)c(Nc2cccc(CCNC(=O)CN(C)C(=O)/C=C/CN(C)C)c2)nc1N(C)C(C)C` [Compound 328, (E)-3-((3-(2-(2-(4-(dimethylamino)-N-methylbut-2-enamido)acetamido)ethyl)phenyl)amino)-5-(isopropyl(methyl)amino)-6-vinylpyrazine-2-carboxamide], for which the IC50 against FLT3-ITD is 0.201 to 0.5 nM; on WT FLT3, 0.201 to 0.5 nM; with MV-4-11, less than 1 nM; with MOLM-13, 10 to 100 nM; in the experiment on K-562 it was greater than 500 nM.

As for `CCc1nc(C(N)=O)c(Nc2cccc(CCNC(=O)[C@H](C)NC(=O)/C=C/CN(C)C)c2)nc1NC(C)C` [Compound 501, (S, E)-3-((3-(2-(2-(4-(dimethylamino)but-2-enamido)propanamido)ethyl)phenyl)amino)-6-ethyl-5-(isopropylamino) pyrazine-2-carboxamide], the 50% inhibitory concentration (IC50) was 0.501 to 1 nM against FLT3-ITD; 0.501 to 1 nM at WT FLT3; less than 1 nM in the experiment with MV-4-11; less than 1 nM in the experiment on MOLM-13; greater than 500 nM in the experiment on K-562.

A word on the IC50: it is the concentration needed to halve the response being measured.
